Our source for the Ki values is patent US10131675B2 (Genentech, Inc., priority 2015, dated 2018).

Sequence of DLK (Q12852 1-520): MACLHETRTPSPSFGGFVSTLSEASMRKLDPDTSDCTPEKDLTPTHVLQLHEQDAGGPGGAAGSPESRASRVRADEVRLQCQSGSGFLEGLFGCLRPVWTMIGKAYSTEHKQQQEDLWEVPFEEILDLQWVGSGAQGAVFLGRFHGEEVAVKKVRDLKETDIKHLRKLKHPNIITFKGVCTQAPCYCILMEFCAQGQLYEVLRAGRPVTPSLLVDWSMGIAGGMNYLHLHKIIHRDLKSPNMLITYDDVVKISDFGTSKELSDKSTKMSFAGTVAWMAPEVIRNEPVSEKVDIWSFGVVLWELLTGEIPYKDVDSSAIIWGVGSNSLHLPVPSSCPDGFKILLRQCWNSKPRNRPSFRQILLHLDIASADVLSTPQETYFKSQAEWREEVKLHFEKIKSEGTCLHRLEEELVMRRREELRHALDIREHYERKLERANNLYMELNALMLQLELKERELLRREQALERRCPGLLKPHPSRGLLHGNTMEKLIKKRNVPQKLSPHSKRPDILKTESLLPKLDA

The target in the assay is DLK (Homo sapiens (Human), UniProt Q12852). In words: DLK TR-FRET Inhibition Assay. The class given is biochemical. As to conditions: N-terminally GST-tagged DLK (catalytic domain amino acid 1-520), MKK4 K131M substrate, 30 μM ATP; read-out: DLK HTRF Ki. The method, boiled down:
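GST-tagged DLK catalytic domain (aa 1-520, 5 nM) phosphorylates 40 nM HIS-tagged MKK4 K131M with 30 μM ATP, pH 7.5, 60 min at ambient temperature; compounds 1:3 serial from 20 uM. Phospho-MKK4 detected by TR-FRET (Eu-cryptate anti-phospho-MKK4/D2 anti-HIS) after 3 h.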
For orientation: In TR-FRET formats the signal depends on donor and acceptor labels being close together.
As a reminder, the Ki is a measure of affinity in units of concentration, obtained from inhibition or displacement. On to `CC1(C)OCCn2c1nc1c(N3CC(F)(F)C3)nc(-c3cnc(N)nc3)nc12` [Example 68], for which the Ki was found to be 480 nM. Next, `CCOc1cc(-c2nc(N3CC(F)(F)C3)c3nc4n(c3n2)CCOC4(C)C)cnc1N` [Example 69]: 289 nM; `CC1(C)OCCn2c1nc1c(N3CC(F)(F)C3)nc(-c3cnc(N)c(OCC4CC4)c3)nc12` [Example 70]: 417 nM; `CC(C)Oc1cc(-c2nc(N3CC(F)(F)C3)c3nc4n(c3n2)CCOC4(C)C)cnc1N` [Example 71]: 104 nM.

With `CCC(C)Oc1cc(-c2nc(N3CC(F)(F)C3)c3nc4n(c3n2)CCOC4(C)C)cnc1N` (stereo not shown) [Example 72], the inhibition constant Ki worked out at 230 nM.

In the case of `COc1cc(-c2nc(N3CCC(F)(F)C3)c3nc4n(c3n2)CCOC4(C)C)cnc1N` [Example 73, 5-(4-(3,3-difluoropyrrolidin-1-yl)-6,6-dimethyl-8,9-dihydro-6H-[1,4]oxazino[4,3-e]purin-2-yl)-3-methoxypyridin-2-amine], the Ki was determined as 297 nM. With `Cc1c[nH]c2ncc(-c3nc(N4CCC(F)(F)C4)c4nc5n(c4n3)CCOC5(C)C)cc12` [Example 74], the inhibition constant Ki came out at 25.9 nM. To `CC(C)c1c[nH]c2ncc(-c3nc(N4CCC(F)(F)C4)c4nc5n(c4n3)CCOC5(C)C)cc12` [Example 75] belongs 112 nM; to `CC1(C)OCCn2c1nc1c(N3CCC(F)(F)C3)nc(-c3cnc(N)nc3)nc12` [Example 76], 97.6 nM. Take `CC1(C)OCCn2c1nc1c(N3CCC(F)(F)C3)nc(-c3cnc(N)c(OCC4CC4)c3)nc12` [Example 77]: the inhibition constant Ki turned out to be 588 nM. In the case of `CCOc1cc(-c2nc(N3CCC(F)(F)C3)c3nc4n(c3n2)CCOC4(C)C)cnc1N` [Example 78], the Ki came to 558 nM.

Take `CC(C)Oc1cc(-c2nc(N3CCC(F)(F)C3)c3nc4n(c3n2)CCOC4(C)C)cnc1N` [Example 79]: the inhibitory constant (Ki) amounted to 269 nM. As for `CCC(C)Oc1cc(-c2nc(N3CCC(F)(F)C3)c3nc4n(c3n2)CCOC4(C)C)cnc1N` (stereo not shown) [Example 80], the Ki was found to be 443 nM.

Take `CC1(C)OCCn2c1nc1c(N3CCC(F)(F)C3)nc(-c3cnc(N)c(Cl)c3)nc12` [Example 81]: the Ki came to 272 nM. Next, `CC1(C)OCCn2c1nc1c(N3CCC(F)(F)C3)nc(-c3cnc(N)c(F)c3)nc12` [Example 82]: 280 nM. `CC1(C)OCCn2c1nc1c(N3CCC(F)(F)C3)nc(-c3cnc4ccnn4c3)nc12` [Example 83]: the Ki was 497 nM. Next, `CC1(C)OCCn2c1nc1c(OC3CCCC3)nc(-c3cnc(N)nc3)nc12` [Example 84, 5-(4-(cyclopentyloxy)-6,6-dimethyl-8,9-dihydro-6H-[1,4]oxazino[4,3-e]purin-2-yl)pyrimidin-2-amine]: 357 nM; `CC(C)Oc1nc(-c2cnc(N)nc2)nc2c1nc1n2CCOC1(C)C` [Example 85]: 571 nM. To `CC1(C)OCCn2c1nc1c(OCC3CC3)nc(-c3cnc(N)nc3)nc12` [Example 86] belongs 634 nM. Take `COc1nc(-c2cnc3[nH]cc(C(F)(F)F)c3c2)nc2c1nc1n2CCOC1(C)C` [Example 87]: the Ki worked out at 14 nM. Next, `CC1(C)OCCn2c1nc1c(OC3CCC3)nc(-c3cnc(N)nc3)nc12` [Example 88]: 330 nM; `CC1(C)OCCn2c1nc1c(OC3CC4CC4C3)nc(-c3cnc(N)nc3)nc12` (stereo not shown) [Example 89]: 551 nM; `CC1(C)OCCn2c1nc1c(N3CC4CC3C4)nc(-c3cnc(N)c(C(F)(F)F)c3)nc12` [Example 90, 5-(4-(2-azabicyclo[2.1.1]hexan-2-yl)-6,6-dimethyl-8,9-dihydro-6H-[1,4]oxazino[4,3-e]purin-2-yl)-3-(trifluoromethyl)pyridin-2-amine]: 5.98 nM. In the case of `CC1(C)OCCn2c1nc1c(N3CC4CC3C4)nc(-c3cncc(C(F)(F)F)c3)nc12` [Example 92, 4-(2-azabicyclo[2.1.1]hexan-2-yl)-6,6-dimethyl-2-(5-(trifluoromethyl)pyridin-3-yl)-8,9-dihydro-6H-[1,4]oxazino[4,3-e]purine], the Ki came out at 478 nM. To `CC1(c2nc(-c3cnc(N)nc3)nc3c2nc2n3CCOC2(C)C)CC1` [Example 95, 5-(6,6-dimethyl-4-(1-methylcyclopropyl)-8,9-dihydro-6H-[1,4]oxazino[4,3-e]purin-2-yl)pyrimidin-2-amine] belongs 476 nM; to `CC1(C(F)(F)F)OCCn2c1nc1c(N3CC4CC3C4)nc(-c3cnc(N)nc3)nc12` (stereo not shown) [Example 100, 5-(4-(2-azabicyclo[2.1.1]hexan-2-yl)-6-methyl-6-(trifluoromethyl)-8,9-dihydro-6H-[1,4]oxazino[4,3-e]purin-2-yl)pyrimidin-2-amine], 225 nM; to `CC1(C)OCCn2c1nc1c(C3(C#N)CCC3)nc(-c3cnc(N)nc3)nc12` [Example 103, 1-(2-(2-aminopyrimidin-5-yl)-6,6-dimethyl-8,9-dihydro-6H-[1,4]oxazino[4,3-e]purin-4-yl)cyclobutanecarbonitrile], 1000 nM. On to `CC1(C)OCCn2c1nc1c(C3CCC3)nc(-c3cnc(N)nc3)nc12` [Example 104, 5-(4-cyclobutyl-6,6-dimethyl-8,9-dihydro-6H-[1,4]oxazino[4,3-e]purin-2-yl)pyrimidin-2-amine], for which the Ki stood at 297 nM.

On to `CC1(C)OCCn2c1nc1c(N3CC(O)C3)nc(-c3cnc4[nH]cnc4c3)nc12` [Example 109, 1-(2-(3H-imidazo[4,5-b]pyridin-6-yl)-6,6-dimethyl-8,9-dihydro-6H-[1,4]oxazino[4,3-e]purin-4-yl)azetidin-3-ol], for which the inhibitory constant (Ki) came to 379 nM. Next, `CC1(C)OCCn2c1nc1c(N3CC(C#N)C3)nc(-c3cnc4[nH]cc(Cl)c4c3)nc12` [Example 110, 1-(2-(3-chloro-1H-pyrrolo[2,3-b]pyridin-5-yl)-6,6-dimethyl-8,9-dihydro-6H-[1,4]oxazino[4,3-e]purin-4-yl)azetidine-3-carbonitrile]: 1.25 nM; `COC1CN(c2nc(-c3cnc4[nH]cnc4c3)nc3c2nc2n3CCOC2(C)C)C1` [Example 111, 2-(3H-imidazo[4,5-b]pyridin-6-yl)-4-(3-methoxyazetidin-1-yl)-6,6-dimethyl-8,9-dihydro-6H-[1,4]oxazino[4,3-e]purine]: 885 nM. To `CC1(C)OCCn2c1nc1c(N3CC(C#N)C3)nc(-c3cnc4[nH]cnc4c3)nc12` [Example 112, 1-(2-(3H-imidazo[4,5-b]pyridin-6-yl)-6,6-dimethyl-8,9-dihydro-6H-[1,4]oxazino[4,3-e]purin-4-yl)azetidine-3-carbonitrile] belongs 458 nM. To `Cn1cc(-c2nc(-c3cnc(N)nc3)nc3c2nc2n3CCOC2(C)C)cn1` [Example 113, 5-(6,6-dimethyl-4-(1-methyl-1H-pyrazol-4-yl)-8,9-dihydro-6H-[1,4]oxazino[4,3-e]purin-2-yl)pyrimidin-2-amine] belongs 521 nM; to `Nc1ncc(-c2nc(N3CC4CC3C4)c3nc4n(c3n2)CCOC42CCC2)cn1` [Example 114, 5-(4-(2-azabicyclo[2.1.1]hexan-2-yl)-8,9-dihydrospiro[[1,4]oxazino[4,3-e]purine-6,1′-cyclobutan]-2-yl)pyrimidin-2-amine], 52.1 nM. With `Nc1ncc(-c2nc(C3CC3)c3nc4n(c3n2)CCOC42CCC2)cn1` [Example 115, 5-(4-cyclopropyl-8,9-dihydrospiro[[1,4]oxazino[4,3-e]purine-6,1′-cyclobutan]-2-yl)pyrimidin-2-amine], the Ki came out at 226 nM.

As to `CC1(C)OCCn2c1nc1c(N3CC4CC3C4)nc(-c3cnc(N)nc3)cc12` [Example 116, 5-(9-(2-azabicyclo[2.1.1]hexan-2-yl)-1,1-dimethyl-3,4-dihydro-1H-pyrido[3′,4′:4,5]imidazo[2,1-c][1,4]oxazin-7-yl)pyrimidin-2-amine], the Ki was found to be 21.3 nM. Take `CCN(c1nc(-c2cnc(N)nc2)nc2c1nc1n2CCOC1(C)C)C1CC1` [Example 117]: the Ki was determined as 0.39 nM. `CC1(C)OCCn2c1nc1c(N3CC4CC3C4)nc(-c3cnc(N)cn3)cc12` [Example 118, 5-(9-(2-azabicyclo[2.1.1]hexan-2-yl)-1,1-dimethyl-3,4-dihydro-1H-pyrido[3′,4′:4,5]imidazo[2,1-c][1,4]oxazin-7-yl)pyrazin-2-amine]: the Ki amounted to 1200 nM. Consider `CC1(C)OCCn2c1nc1c(C3CC3)nc(-c3cnc(N)c(OC(F)F)c3)nc12` [Example 119, 5-(4-cyclopropyl-6,6-dimethyl-8,9-dihydro-6H-[1,4]oxazino[4,3-e]purin-2-yl)-3-(difluoromethoxy)pyridin-2-amine], for which the Ki came out at 34.3 nM. As to `CC1(C)OCCn2c1nc1c(C3CC3)nc(-c3cnc(N)nc3)cc12` [Example 120], the inhibition constant Ki amounted to 359 nM. Next, `Cc1c[nH]c2ncc(-c3nc(C4CC4)c4nc5n(c4n3)CCOC5(C)C)cc12` [Example 121]: 5.48 nM; `CC1(C)OCCn2c1nc1c(C3CC3)nc(-c3cnc(N)nc3)nc12` [Example 122]: 307 nM. Next, `CC1(C)OCCn2c1nc1c(NC3CCCC3)nc(-c3cnc(N)nc3)nc12` [Example 123, 2-(2-aminopyrimidin-5-yl)-N-cyclopentyl-6,6-dimethyl-8,9-dihydro-6H-[1,4]oxazino[4,3-e]purin-4-amine]: 60.1 nM.

As to `CC1(C)OCCn2c1nc1c(NC3CCC3)nc(-c3cnc(N)nc3)nc12` [Example 124], the Ki was determined as 73.9 nM. For the molecule `CC1(C)OCCn2c1nc1c(C3CC3)nc(-c3cnc4c(c3)CCN4)nc12` [Example 125, 4-cyclopropyl-2-(2,3-dihydro-1H-pyrrolo[2,3-b]pyridin-5-yl)-6,6-dimethyl-8,9-dihydro-6H-[1,4]oxazino[4,3-e]purine], the Ki was found to be 626 nM. To `CC1(C)OCCn2c1nc1c(C3CC3)nc(-c3cnc(N)c(C#N)c3)nc12` [Example 126, 2-amino-5-(4-cyclopropyl-6,6-dimethyl-8,9-dihydro-6H-[1,4]oxazino[4,3-e]purin-2-yl)nicotinonitrile] belongs 264 nM.
